How the values were obtained:
[1] = in vitro microsomal stability with NADPH, LC/MS; conditions: rat liver microsomes
rat UT-A1 = biological target: T1, rat UT-A1 (Rattus norvegicus, UniProt Q62668); assay: UT-A1 inhibition assay; format: cell-based; conditions: for UT inhibition activity (in words): text summary of urea transport inhibition (UT-A1 / UT-B, Table 1)
T1 sequence (Q62668 1-929): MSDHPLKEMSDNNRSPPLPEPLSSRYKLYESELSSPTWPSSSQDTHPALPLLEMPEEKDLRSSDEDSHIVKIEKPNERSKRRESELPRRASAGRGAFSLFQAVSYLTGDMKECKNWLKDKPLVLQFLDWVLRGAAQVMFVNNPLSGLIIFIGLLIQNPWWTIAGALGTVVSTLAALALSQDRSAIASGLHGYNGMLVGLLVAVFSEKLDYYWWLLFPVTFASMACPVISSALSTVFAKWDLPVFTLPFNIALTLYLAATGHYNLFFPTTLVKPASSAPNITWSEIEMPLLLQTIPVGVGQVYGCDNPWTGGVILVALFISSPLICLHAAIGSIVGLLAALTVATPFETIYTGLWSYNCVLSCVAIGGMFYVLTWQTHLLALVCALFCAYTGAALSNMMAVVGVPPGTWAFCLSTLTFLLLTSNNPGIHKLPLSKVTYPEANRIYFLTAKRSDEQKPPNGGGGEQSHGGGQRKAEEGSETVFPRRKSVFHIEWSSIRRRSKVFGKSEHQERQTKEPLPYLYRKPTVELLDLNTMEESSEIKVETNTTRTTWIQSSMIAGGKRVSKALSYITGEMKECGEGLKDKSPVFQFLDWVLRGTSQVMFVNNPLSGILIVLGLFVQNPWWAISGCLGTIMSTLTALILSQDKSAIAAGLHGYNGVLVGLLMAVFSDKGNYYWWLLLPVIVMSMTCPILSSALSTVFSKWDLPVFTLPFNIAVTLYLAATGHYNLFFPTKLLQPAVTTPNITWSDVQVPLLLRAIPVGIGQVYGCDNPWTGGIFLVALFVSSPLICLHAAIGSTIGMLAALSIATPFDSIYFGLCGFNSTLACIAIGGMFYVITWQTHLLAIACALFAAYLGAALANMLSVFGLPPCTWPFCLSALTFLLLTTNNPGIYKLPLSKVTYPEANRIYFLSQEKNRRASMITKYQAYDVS

UT-B = biological target: T2, UT-B (Rattus norvegicus, UniProt P97689); assay: UT-B inhibition assay; format: cell-based; conditions: concentration-inhibition fit
T2 sequence (P97689 1-384): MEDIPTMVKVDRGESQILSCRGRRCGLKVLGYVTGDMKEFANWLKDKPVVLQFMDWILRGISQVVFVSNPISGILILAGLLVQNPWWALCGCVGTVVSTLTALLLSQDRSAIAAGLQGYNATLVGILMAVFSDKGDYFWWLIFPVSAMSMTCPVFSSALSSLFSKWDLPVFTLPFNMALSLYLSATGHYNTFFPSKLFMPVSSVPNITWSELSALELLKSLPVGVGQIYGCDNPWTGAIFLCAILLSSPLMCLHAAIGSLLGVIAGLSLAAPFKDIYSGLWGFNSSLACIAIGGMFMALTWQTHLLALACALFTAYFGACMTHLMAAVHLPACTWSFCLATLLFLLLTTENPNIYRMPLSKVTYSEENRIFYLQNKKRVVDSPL

SMILES	[M+H-16] metabolite by LC/MS [1]	UT inhibition activity (in words) (rat UT-A1)	further results
O=C(CO)Nc1ccc2c(c1)C(=O)c1cc(NC(=O)CO)ccc1-2 [compound 12]	–	low activity	–
O=C1c2cc(NC(=O)C(F)(F)F)ccc2-c2ccc(NC(=O)C(F)(F)F)cc21 [compound 7]	–	much less active	–
CC(=O)Nc1ccc2c(c1)C(=O)c1cc(NC(C)=O)ccc1-2 [compound 3, 2,7-bisacetamido fluoren-9-one]	detected	–	extent of UT-A1 inhibition at higher concentrations (rat UT-A1; higher concentrations): complete inhibition; reversibility of UT-A1 inhibition (rat UT-A1; incubation near IC50, then washing with PBS): complete reversibility; time to complete inhibition of UT-A1 (rat UT-A1; inhibition kinetics): ≤ 40 s; Hill coefficient, UT-A1 (rat UT-A1; rat UT-A1, concentration-inhibition fit): 0.9; inhibition mechanism (urea competition) (rat UT-A1; urea 80 to 1,600 mM, apparent IC50 independent of urea concentration): non-competitive; Hill coefficient, UT-B (UT-B): 1.1

More lines, main results first:

[M+H-16] metabolite by LC/MS [1]	UT inhibition activity (in words) (rat UT-A1)	SMILES	further results
not detected	–	CC(=O)Nc1cccc(C(=O)c2cccc(NC(C)=O)c2)c1 [compound 22]	–
–	inactive	CS(=O)(=O)Nc1cccc(C(=O)c2cccc(NS(C)(=O)=O)c2)c1 [compound 24, bismethanesulfonamidobenzophenone]	–
not detected	–	CC(=O)Nc1ccc2c(c1)C(=NO)c1cc(NC(C)=O)ccc1-2 [compound 17]	–
–	strong inhibition	CS(=O)(=O)Nc1ccc2c(c1)C(=O)c1cc(NS(C)(=O)=O)ccc1-2 [compound 9]	–
